Test system: patients with negative symptoms of schizophrenia
Assay: Study #2 (MIN-101C07) Phase 3: PANSS-derived scores (NSFS, total, subscales, Marder factors)
Assay type: in vivo, human
Set-up: key to Change from Baseline LS Mean: NSFS (ITT) / Change from Baseline LS Mean: NSFS (mITT): NSFS total ranges 7 to 49; higher = more severe
Details: for Change from Baseline LS Mean: Marder's Anxiety/Depression Factor Score / Change from Baseline LS Mean: Marder's Disorganized Thought Factor Score / Change from Baseline LS Mean: Marder's Positive Symptoms Factor Score / Change from Baseline LS Mean: Marder's Uncontrolled Hostility/Excitement Factor Score / Change from Baseline LS Mean: NSFS (ITT) / Change from Baseline LS Mean: NSFS Emotional Experience Score / Change from Baseline LS Mean: NSFS Emotional Expression Score / Change from Baseline LS Mean: PANSS General Psychopathology Subscale / Change from Baseline LS Mean: PANSS Negative Symptoms Subscale / Change from Baseline LS Mean: PANSS Positive Symptoms Subscale / Change from Baseline LS Mean: PANSS Total Score / Effect Size (Cohen's d) vs Placebo: Marder's Anxiety/Depression Factor Score / Effect Size (Cohen's d) vs Placebo: Marder's Disorganized Thought Factor Score / Effect Size (Cohen's d) vs Placebo: Marder's Positive Symptoms Factor Score / Effect Size (Cohen's d) vs Placebo: Marder's Uncontrolled Hostility/Excitement Factor Score / Effect Size (Cohen's d) vs Placebo: NSFS (ITT) / Effect Size (Cohen's d) vs Placebo: NSFS Emotional Experience Score / Effect Size (Cohen's d) vs Placebo: NSFS Emotional Expression Score / Effect Size (Cohen's d) vs Placebo: PANSS General Psychopathology Subscale / Effect Size (Cohen's d) vs Placebo: PANSS Negative Symptoms Subscale / Effect Size (Cohen's d) vs Placebo: PANSS Positive Symptoms Subscale / Effect Size (Cohen's d) vs Placebo: PANSS Total Score / Effect size, change from Baseline in NSFS to Week 12: ITT; for Effect size, change from Baseline in NSFS to Week 12: 64 mg
Description: “PANSS”, as used herein, refers to the positive and negative syndrome scale, which is used by physicians and clinicians to measure the severity of the symptoms in a schizophrenia patient. The scale is divided into three parts, a positive scale, which provides a “PANSS positive subscore”, a negative scale, which provides a “PANSS negative subscore”, and general psychopathology scale. The sum of these three parts provides a PANSS total score, which ranges from 30 to 210 (where higher scores indicate more severe symptoms). (Kay, S. R., et al. “The positive and negative syndrome scale (PANSS) for schizophrenia,” Schizophr Bulletin, 13(2), 261-276 (1987)).
As used herein, PANSS Marder's negative symptoms factor score (“NSFS”), refers to selection of seven of the PANSS items used by physicians and clinicians to measure the severity of the negative symptoms in a schizophrenia patient. (See Tables 5A and 5B.) The NSFS total score ranges from 7 to 49. (Marder, S. R. et al. “The effects of risperidone on the five dimensions of schizophrenia derived by factor analysis: combined results of the North American trials,” J Clin Psychiatry. 1997; 58:538-46.)
The PANSS was designed to be used in patients with schizophrenia to measure the overall severity of schizophrenic symptoms. The scale has been validated in different cultures and languages and is reliable and acceptable to regulatory health authorities as a primary scale to determine efficacy of intervention in schizophrenia. The name refers to the 2 types of symptoms in schizophrenia, as defined by the American Psychiatric Association: positive symptoms, which refer to an excess or distortion of normal functions (e.g., hallucinations and delusions), and negative symptoms, which represent a diminution or loss of normal functions.
The patient is rated from 1 to 7 on 30 different symptoms based on the interview as well as reports of family members or primary care hospital workers. The original PANSS included 3 groups of symptoms and subscale scores Positive, Negative, and General Psychopathology. Since the inception of PANSS, investigators have proposed additional grouping (structures) of PANSS such as the Marder structure (Marder, S. R. et al. “Issues and perspectives in designing clinical trials for negative symptoms in schizophrenia: consensus statements,” Schizophrenia Bulletin Open. 2020; 1(1). doi:10.1093/schizbullopen/sgz001) and the White structure (White, L. et al. “Empirical assessment of the factorial structure of clinical symptoms in schizophrenia”. Psychopathology. 1997; 30263-274).
The PANSS was assessed at the time points described in Table 4.
The PANSS-derived endpoints used in these studies and the integrated analyses are described in Table 5A and a summary of the individual PANSS items used by physicians and clinicians to measure the severity of the symptoms in a schizophrenia patient is provided in Table 5B. The scale is divided into three parts, a positive scale, which provides a “PANSS positive subscore”, a negative scale, which provides a “PANSS negative subscore”, and general psychopathology scale. The sum of these three parts provides a PANSS total score, which ranges from 30 to 210 (where higher scores indicate more severe symptoms). (See Kay, S. R., et al. “The positive and negative syndrome scale (PANSS) for schizophrenia,” Schizophr Bulletin, 13(2), 261-276 (1987) and Gopal, S., et al. “Improvement of Negative Symptoms in Schizophrenia with Paliperidone Palmitate 1-Month and 3-Month Long-Acting Injectables: Results from a Phase 3 Non-Inferiority Study” Neuropsychiatric Disease and Treatment, 681-690, DOI: 10.2147/NDT.5226296, both of which are incorporated by reference.)
Study #2 (also referred to as “MIN101C07”) was a Phase 3, randomized, DB, placebo-controlled, parallel-group 12-week study to evaluate the efficacy and safety of Roluperidone in patients ≥18 years to ≤55 years with negative symptoms of schizophrenia, followed by a 40-week OL extension. […]

1H-Isoindol-1-one,2-[ [1-[2-(4-fluorophenyl)-2-oxoethyl]-4-piperidinyl]methyl]-2,3-dihydro-, hydrochloride, hydrate (1:1:2) [Roluperidone]
Effect Size (Cohen's w) vs Placebo: 20% reduction in NSFS responders (32 mg QD, Week 12 DB): 0.05
Effect Size (Cohen's w) vs Placebo: 30% reduction in NSFS responders (32 mg QD, Week 12 DB): 0.04
Number of Patients with 20% reduction in NSFS at Week 12 (32 mg QD, Week 12 DB): 32/116
Number of Patients with 30% reduction in NSFS at Week 12 (32 mg QD, Week 12 DB): 14/116
Patients with 20% reduction in NSFS at Week 12 (%) (32 mg QD, Week 12 DB): (28%)
Patients with 30% reduction in NSFS at Week 12 (%) (32 mg QD, Week 12 DB): (12%)
Change from Baseline LS Mean: Marder's Anxiety/Depression Factor Score (32 mg QD, Week 12 DB): −0.6
Change from Baseline LS Mean: Marder's Disorganized Thought Factor Score (32 mg QD, Week 12 DB): −1.6
Change from Baseline LS Mean: Marder's Positive Symptoms Factor Score (32 mg QD, Week 12 DB): −1.3
Change from Baseline LS Mean: Marder's Uncontrolled Hostility/Excitement Factor Score (32 mg QD, Week 12 DB): 0.3
Change from Baseline LS Mean: NSFS (ITT) (32 mg QD, Week 12 DB): −4.0
Change from Baseline LS Mean: NSFS Emotional Experience Score (32 mg QD, Week 12 DB): −1.5
Change from Baseline LS Mean: NSFS Emotional Expression Score (32 mg QD, Week 12 DB): −2.6
Change from Baseline LS Mean: PANSS General Psychopathology Subscale (32 mg QD, Week 12 DB): −2.8
Change from Baseline LS Mean: PANSS Negative Symptoms Subscale (32 mg QD, Week 12 DB): −4.2
Change from Baseline LS Mean: PANSS Positive Symptoms Subscale (32 mg QD, Week 12 DB): −0.3
Change from Baseline LS Mean: PANSS Total Score (32 mg QD, Week 12 DB): −7.1
Effect Size (Cohen's d) vs Placebo: Marder's Anxiety/Depression Factor Score (32 mg QD, Week 12 DB): 0.05
Effect Size (Cohen's d) vs Placebo: Marder's Disorganized Thought Factor Score (32 mg QD, Week 12 DB): 0.15
Effect Size (Cohen's d) vs Placebo: Marder's Positive Symptoms Factor Score (32 mg QD, Week 12 DB): 0.14
Effect Size (Cohen's d) vs Placebo: Marder's Uncontrolled Hostility/Excitement Factor Score (32 mg QD, Week 12 DB): −0.05
Effect Size (Cohen's d) vs Placebo: NSFS (ITT) (32 mg QD, Week 12 DB): 0.13
Effect Size (Cohen's d) vs Placebo: NSFS Emotional Experience Score (32 mg QD, Week 12 DB): 0.11
Effect Size (Cohen's d) vs Placebo: NSFS Emotional Expression Score (32 mg QD, Week 12 DB): 0.17
Effect Size (Cohen's d) vs Placebo: PANSS General Psychopathology Subscale (32 mg QD, Week 12 DB): 0.22
Effect Size (Cohen's d) vs Placebo: PANSS Negative Symptoms Subscale (32 mg QD, Week 12 DB): 0.10
Effect Size (Cohen's d) vs Placebo: PANSS Positive Symptoms Subscale (32 mg QD, Week 12 DB): 0.04
Effect Size (Cohen's d) vs Placebo: PANSS Total Score (32 mg QD, Week 12 DB): 0.17
Change from Baseline LS Mean: NSFS (mITT) (32 mg QD, Week 12 DB): −4.0
Effect Size (Cohen's d) vs Placebo: NSFS (mITT) (32 mg QD, Week 12 DB): 0.13
Effect Size (Cohen's w) vs Placebo: 20% reduction in NSFS responders (64 mg QD, Week 12 DB): 0.17
Effect Size (Cohen's w) vs Placebo: 30% reduction in NSFS responders (64 mg QD, Week 12 DB): 0.09
Number of Patients with 20% reduction in NSFS at Week 12 (64 mg QD, Week 12 DB): 48/122
Number of Patients with 30% reduction in NSFS at Week 12 (64 mg QD, Week 12 DB): 24/122
Change from Baseline LS Mean: Marder's Anxiety/Depression Factor Score (64 mg QD, Week 12 DB): −0.7
Change from Baseline LS Mean: Marder's Disorganized Thought Factor Score (64 mg QD, Week 12 DB): −1.4
Change from Baseline LS Mean: Marder's Positive Symptoms Factor Score (64 mg QD, Week 12 DB): −1.6
Change from Baseline LS Mean: Marder's Uncontrolled Hostility/Excitement Factor Score (64 mg QD, Week 12 DB): 0.5
Change from Baseline LS Mean: NSFS (ITT) (64 mg QD, Week 12 DB): −4.3
Change from Baseline LS Mean: NSFS Emotional Experience Score (64 mg QD, Week 12 DB): −1.8
Change from Baseline LS Mean: NSFS Emotional Expression Score (64 mg QD, Week 12 DB): −2.6
Change from Baseline LS Mean: PANSS General Psychopathology Subscale (64 mg QD, Week 12 DB): −2.3
Change from Baseline LS Mean: PANSS Negative Symptoms Subscale (64 mg QD, Week 12 DB): −4.7
Change from Baseline LS Mean: PANSS Positive Symptoms Subscale (64 mg QD, Week 12 DB): −0.4
Change from Baseline LS Mean: PANSS Total Score (64 mg QD, Week 12 DB): −7.4
Effect Size (Cohen's d) vs Placebo: Marder's Anxiety/Depression Factor Score (64 mg QD, Week 12 DB): 0.09
Effect Size (Cohen's d) vs Placebo: Marder's Disorganized Thought Factor Score (64 mg QD, Week 12 DB): 0.07
Effect Size (Cohen's d) vs Placebo: Marder's Positive Symptoms Factor Score (64 mg QD, Week 12 DB): 0.24
Effect Size (Cohen's d) vs Placebo: Marder's Uncontrolled Hostility/Excitement Factor Score (64 mg QD, Week 12 DB): −0.15
Effect Size (Cohen's d) vs Placebo: NSFS (ITT) (64 mg QD, Week 12 DB): 0.21
Effect Size (Cohen's d) vs Placebo: NSFS Emotional Experience Score (64 mg QD, Week 12 DB): 0.28
Effect Size (Cohen's d) vs Placebo: NSFS Emotional Expression Score (64 mg QD, Week 12 DB): 0.17
Effect Size (Cohen's d) vs Placebo: PANSS General Psychopathology Subscale (64 mg QD, Week 12 DB): 0.12
Effect Size (Cohen's d) vs Placebo: PANSS Negative Symptoms Subscale (64 mg QD, Week 12 DB): 0.23
Effect Size (Cohen's d) vs Placebo: PANSS Positive Symptoms Subscale (64 mg QD, Week 12 DB): 0.07
Effect Size (Cohen's d) vs Placebo: PANSS Total Score (64 mg QD, Week 12 DB): 0.20
Change from Baseline LS Mean: NSFS (mITT) (64 mg QD, Week 12 DB): −4.5
Effect Size (Cohen's d) vs Placebo: NSFS (mITT) (64 mg QD, Week 12 DB): 0.26
Effect size, change from Baseline in NSFS to Week 12 (US sites subgroup): 0.32
Effect size, change from Baseline in NSFS to Week 12 (non-US sites subgroup): 0.20
NSFS score, course in OL period (all treatment groups, OL period to Week 52): continued to improve

From patent US20230255953A1, “USE OF ROLUPERIDONE IN PREVENTING RELAPSE IN SCHIZOPHRENIA PATIENTS” (Minerva Neurosciences, Inc., priority 2022, published 2023)
